According to US12077555B2, “STAT degraders and uses thereof” (Kymera Therapeutics, Inc., priority 2019, dated 2024):

Target: STAT3 (Homo sapiens, UniProt P40763)
Assay: Quantitation of STAT3 degradation in A549 cells by Western blot
Type: cell-based
Set-up: expressed in transfected cells; host or cells: A549
Conditions: read-out: A549 DC50, 24 hours, tested up to 30 μM or 10 μM
How it was run: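 A549 cells treated 24 h at 37° C with compound at 30, 10, 3, 1, 0.3 μM or DMSO; RIPA lysates analysed by SDS-PAGE/Western blot for total STAT3, β-actin as loading control, LI-COR fluorescence read-out. DC50 derived by sigmoidal fit of dose-dependent degradation.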

Sequence of STAT3 (P40763 whole entry): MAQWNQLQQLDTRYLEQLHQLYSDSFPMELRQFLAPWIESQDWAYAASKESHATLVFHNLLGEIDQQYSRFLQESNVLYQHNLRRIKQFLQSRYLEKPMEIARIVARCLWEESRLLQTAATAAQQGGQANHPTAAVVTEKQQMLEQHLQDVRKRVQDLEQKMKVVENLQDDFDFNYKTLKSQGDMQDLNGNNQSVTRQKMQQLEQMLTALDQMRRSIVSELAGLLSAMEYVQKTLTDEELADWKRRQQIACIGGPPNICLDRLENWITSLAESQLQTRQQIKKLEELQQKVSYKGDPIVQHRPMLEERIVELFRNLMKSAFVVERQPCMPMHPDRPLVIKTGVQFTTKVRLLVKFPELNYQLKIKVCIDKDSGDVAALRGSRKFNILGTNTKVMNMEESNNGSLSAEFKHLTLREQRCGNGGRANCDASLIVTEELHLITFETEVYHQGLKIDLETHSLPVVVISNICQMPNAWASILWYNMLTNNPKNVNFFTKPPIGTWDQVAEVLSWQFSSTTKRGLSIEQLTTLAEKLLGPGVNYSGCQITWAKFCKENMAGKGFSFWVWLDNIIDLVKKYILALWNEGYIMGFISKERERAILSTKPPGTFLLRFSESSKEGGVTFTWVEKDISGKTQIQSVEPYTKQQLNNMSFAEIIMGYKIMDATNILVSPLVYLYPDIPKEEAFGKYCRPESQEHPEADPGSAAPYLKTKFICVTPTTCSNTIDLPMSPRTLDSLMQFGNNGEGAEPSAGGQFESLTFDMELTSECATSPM

Row | SMILES | DC50 [µM]
1 | Cn1c(=O)n(C2CCC(=O)NC2=O)c2ccc(C#CCCCCC(=O)N3CC[C@H]4CC[C@@H](C(=O)N[C@@H](CCC(N)=O)C(=O)NC(c5ccccc5)c5ccccc5)N4C(=O)[C@@H](NC(=O)c4cc5cc(C(=O)P(=O)(O)O)ccc5[nH]4)C3)cc21 (stereo partly drawn) [Compound I-99, 2-[[(5S,8S,10aR)-8-[[(1S)-3-carbamoyl-1-(diphenylmethylcarbamoyl)propyl]carbamoyl]-3-[7-[1-(2,6-dioxopiperidin-3-yl)-3-methyl-2-oxo-1,3-benzodiazol-5-yl]hept-6-ynoyl]-6-oxo-octahydropyrrolo[1,2-a][1,5]diazocin-5-yl]carbamoyl]-1H-indole-5-carbonylphosphonic acid] | < 30
2 | Cc1ncsc1-c1ccc(CNC(=O)[C@@H]2C[C@@H](O)CN2C(=O)[C@@H](NC(=O)CCCCCCc2ccc(CO[C@H](C)[C@H](CCC(N)=O)NC(=O)[C@@H]3Cc4cccc5c4N3C(=O)[C@@H](NC(=O)c3cc4cc(C(=O)P(=O)(O)O)ccc4[nH]3)CC5)cc2)C(C)(C)C)cc1 [Compound I-100] | < 30
3 | Cc1ncsc1-c1ccc(CNC(=O)C2C[C@@H](O)CN2C(=O)[C@@H](NC(=O)CCCc2ccc(CO[C@H](C)[C@H](CCC(N)=O)NC(=O)[C@@H]3Cc4cccc5c4N3C(=O)[C@@H](NC(=O)c3cc4cc(C(=O)P(=O)(O)O)ccc4[nH]3)CC5)cc2)C(C)(C)C)cc1 (some centres unmarked) [Compound I-101] | < 30
4 | Cn1c(C(=O)N[C@H]2CN(C(=O)CCCCCC#Cc3cccc4c3CN(C3CCC(=O)NC3=O)C4=O)CC[C@H]3CC[C@@H](C(=O)N[C@@H](CCC(N)=O)C(=O)NC(c4ccccc4)c4ccccc4)N3C2=O)cc2cc(C(=O)P(=O)(O)O)ccc21 (stereo partly drawn) [Compound I-102, diammonium 2-[[(5S,8S,10aR)-8-[[(1S)-3-carbamoyl-1-(diphenylmethylcarbamoyl)propyl]carbamoyl]-3-[8-[2-(2,6-dioxopiperidin-3-yl)-1-oxo-3H-isoindol-4-yl]oct-7-ynoyl]-6-oxo-octahydropyrrolo[1,2-a][1,5]diazocin-5-yl]carbamoyl]-1-methylindole-5-carbonylphosphonate] | < 30
5 | Cn1c(=O)n(C2CCC(=O)NC2=O)c2ccc(C#CCCCCCC(=O)N3CC[C@H]4CC[C@@H](C(=O)N[C@@H](CCC(N)=O)C(=O)NC(c5ccccc5)c5ccccc5)N4C(=O)[C@@H](NC(=O)c4cc5cc(C(=O)P(=O)(O)O)ccc5[nH]4)C3)cc21 (stereo partly drawn) [Compound I-104, 2-[[(5S,8S,10aR)-8-[[(1S)-3-carbamoyl-1-(diphenylmethylcarbamoyl)propyl]carbamoyl]-3-[8-[1-(2,6-dioxopiperidin-3-yl)-3-methyl-2-oxo-1,3-benzodiazol-5-yl]oct-7-ynoyl]-6-oxo-octahydropyrrolo[1,2-a][1,5]diazocin-5-yl]carbamoyl]-1H-indole-5-carbonylphosphonic acid] | < 30
6 | Cn1c(=O)n(C2CCC(=O)NC2=O)c2ccc(C#CCCCC(=O)N3CC[C@H]4CC[C@@H](C(=O)N[C@@H](CCC(N)=O)C(=O)NC(c5ccccc5)c5ccccc5)N4C(=O)[C@@H](NC(=O)c4cc5cc(C(=O)P(=O)(O)O)ccc5[nH]4)C3)cc21 (stereo partly drawn) [Compound I-105, 2-[[(5S,8S,10aR)-8-[[(1S)-3-carbamoyl-1-(diphenylmethylcarbamoyl)propyl]carbamoyl]-3-[6-[1-(2,6-dioxopiperidin-3-yl)-3-methyl-2-oxo-1,3-benzodiazol-5-yl]hex-5-ynoyl]-6-oxo-octahydropyrrolo[1,2-a][1,5]diazocin-5-yl]carbamoyl]-1H-indole-5-carbonylphosphonic acid] | < 30
7 | Cn1c(=O)n(C2CCC(=O)NC2=O)c2ccc(CCCCCC(=O)N3CC[C@H]4CC[C@@H](C(=O)N[C@@H](CCC(N)=O)C(=O)NC(c5ccccc5)c5ccccc5)N4C(=O)[C@@H](NC(=O)c4cc5cc(C(=O)P(=O)(O)O)ccc5[nH]4)C3)cc21 (stereo partly drawn) [Compound I-107, 2-[[(5S,8S,10aR)-8-[[(1S)-3-carbamoyl-1-(diphenylmethylcarbamoyl)propyl]carbamoyl]-3-[6-[1-(2,6-dioxopiperidin-3-yl)-3-methyl-2-oxo-1,3-benzodiazol-5-yl]hexanoyl]-6-oxo-octahydropyrrolo[1,2-a][1,5]diazocin-5-yl]carbamoyl]-1H-indole-5-carbonylphosphonic acid] | < 30
8 | C/C(=C\C(=O)N[C@H]1CCc2cccc3c2N(C1=O)[C@H](C(=O)N[C@@H](CCC(N)=O)[C@@H](C)OCCCc1ccc2c(c1)n(C)c(=O)n2C1CCC(=O)NC1=O)C3)c1ccc(C(F)(F)P(=O)(O)O)cc1 (stereo partly drawn) [Compound I-110, diammonium [4-[(1E)-1-[[(2S,11S)-2-[[(3S,4R)-1-carbamoyl-4-[3-[1-(2,6-dioxopiperidin-3-yl)-3-methyl-2-oxo-1,3-benzodiazol-5-yl]propoxy]pentan-3-yl]carbamoyl]-12-oxo-1-azatricyclo[6.4.1.0^[4,13]]trideca-4(13),5,7-trien-11-yl]carbamoyl]prop-1-en-2-yl]phenyl]difluoromethylphosphonate] | > 30
9 | C/C(=C\C(=O)N[C@H]1CN(C(=O)CCCCCCc2ccc3c(c2)n(C)c(=O)n3C2CCC(=O)NC2=O)CC[C@H]2CC[C@@H](C(=O)N[C@@H](CCC(N)=O)C(=O)NC(c3ccccc3)c3ccccc3)N2C1=O)c1ccc(C(F)(F)P(=O)(O)O)cc1 (some centres unmarked) [Compound I-112] | < 30
10 | C/C(=C\C(=O)N[C@H]1CN(C(=O)CCCCCCCc2ccc3c(c2)n(C)c(=O)n3C2CCC(=O)NC2=O)CC[C@H]2CC[C@@H](C(=O)N[C@@H](CCC(N)=O)C(=O)NC(c3ccccc3)c3ccccc3)N2C1=O)c1ccc(C(F)(F)P(=O)(O)O)cc1 (stereo partly drawn) [Compound I-113, [4-[(1E)-1-[[(5S,8S,10aR)-8-[[(1S)-3-carbamoyl-1-(diphenylmethylcarbamoyl)propyl]carbamoyl]-3-[8-[1-(2,6-dioxopiperidin-3-yl)-3-methyl-2-oxo-1,3-benzodiazol-5-yl]octanoyl]-6-oxo-octahydropyrrolo[1,2-a][1,5]diazocin-5-yl]carbamoyl]prop-1-en-2-yl]phenyl]difluoromethylphosphonic acid] | > 30
11 | C/C(=C\C(=O)N[C@H]1CN(C(=O)CCCCCc2ccc3c(c2)n(C)c(=O)n3C2CCC(=O)NC2=O)CC[C@H]2CC[C@@H](C(=O)N[C@@H](CCC(N)=O)C(=O)NC(c3ccccc3)c3ccccc3)N2C1=O)c1ccc(C(F)(F)P(=O)(O)O)cc1 (stereo partly drawn) [Compound I-114, [4-[(1E)-1-[[(5S,8S,10aR)-8-[[(1S)-3-carbamoyl-1-(diphenylmethylcarbamoyl)propyl]carbamoyl]-3-[6-[1-(2,6-dioxopiperidin-3-yl)-3-methyl-2-oxo-1,3-benzodiazol-5-yl]hexanoyl]-6-oxo-octahydropyrrolo[1,2-a][1,5]diazocin-5-yl]carbamoyl]prop-1-en-2-yl]phenyl]difluoromethylphosphonic acid] | > 30
12 | C/C(=C\C(=O)N[C@H]1CN(C(=O)CCCCCC#Cc2cccc3c2CN(C2CCC(=O)NC2=O)C3=O)CC[C@H]2CC[C@@H](C(=O)N[C@@H](CCC(N)=O)C(=O)NC(c3ccccc3)c3ccccc3)N2C1=O)c1ccc(C(F)(F)P(=O)(O)O)cc1 (stereo partly drawn) [Compound I-115, ((4-((E)-4-(((5S,8S,10aR)-8-(((S)-5-amino-1-(benzhydrylamino)-1,5-dioxopentan-2-yl)carbamoyl)-3-(8-(2-(2,6-dioxopiperidin-3-yl)-1-oxoisoindolin-4-yl)oct-7-ynoyl)-6-oxodecahydropyrrolo[1,2-a][1,5]diazocin-5-yl)amino)-4-oxobut-2-en-2-yl)phenyl)difluoromethyl)phosphonic acid] | < 30
13 | Cc1ncsc1-c1ccc(CNC(=O)[C@@H]2C[C@@H](O)CN2C(=O)[C@@H](NC(=O)CCCCCc2ccc(CO[C@H](C)[C@H](CCC(N)=O)NC(=O)[C@@H]3Cc4cccc5c4N3C(=O)[C@@H](NC(=O)c3cc4cc(C(=O)P(=O)(O)O)ccc4[nH]3)CC5)cc2)C(C)(C)C)cc1 [Compound I-117, (2-(((3S,6S)-6-(((2R,3S)-6-amino-2-((4-(6-(((S)-1-((2S,4R)-4-hydroxy-2-((4-(4-methylthiazol-5-yl)benzyl)carbamoyl)pyrrolidin-1-yl)-3,3-dimethyl-1-oxobutan-2-yl)amino)-6-oxohexyl)benzyl)oxy)-6-oxohexan-3-yl)carbamoyl)-4-oxo-1,2,3,4,6,7-hexahydroazepino[3,2,1-hi]indol-3-yl)carbamoyl)-1H-indole-5-carbonyl)phosphonic acid] | < 30
14 | C[C@@H](OCc1ccc(CCCCCCc2ccc3c(c2)n(C)c(=O)n3C2CCC(=O)NC2=O)cc1)[C@H](CCC(N)=O)NC(=O)[C@@H]1Cc2cccc3c2N1C(=O)[C@@H](NC(=O)c1cc2cc(C(=O)P(=O)(O)O)ccc2[nH]1)CC3 (stereo partly drawn) [Compound I-118, diammonium 2-[[(2S,11S)-2-[[(3S,4R)-1-carbamoyl-4-[(4-[6-[1-(2,6-dioxopiperidin-3-yl)-3-methyl-2-oxo-1,3-benzodiazol-5-yl]hexyl]phenyl)methoxy]pentan-3-yl]carbamoyl]-12-oxo-1-azatricyclo[6.4.1.0^[4,13]]trideca-4(13),5,7-trien-11-yl]carbamoyl]-1H-indole-5-carbonylphosphonate] | > 30
